{"source": "patent US20260191925A2", "about": "“TISSUE OCCLUDING AGENT COMPRISING AN IEIKIEIKIEIKI PEPTIDE” (3-D Matrix, Ltd., priority 2008, published 2026)", "key": {"[1]": {"assay": "Self-assembly of aqueous peptide solution with rabbit bile (Example 10)", "format": "physicochemical", "settings": "covered with rabbit bile, approximately 30 seconds", "description": "(§1) The rabbits were subcutaneously administered (3 mg/kg) Celactar 2% injection (2.0 g content as xylazine in 100 mL, product of Bayer Ltd.), and then ketamine (50 mg content as ketamine in 1 mL, product of Fuji Chemical Industries, Ltd.) was intravenously administered (10 mg/kg) for anesthesia.\nThe rabbits were laparotomized by median section, and bile was sampled from the gallbladder using a 23 G injection needle (Terumo Corp.).\nDroplets of each aqueous peptide solution before self-assembly were prepared (diameter: approximately 5-8 mm), and the sampled bile was gently poured thereover so as to cover the aqueous peptide solution."}, "rabbit hepatic incision": {"system": "rabbit hepatic incision", "assay": "Rabbit hepatic transection model (Example 9)", "format": "in vivo", "settings": "1% solution, 1 minute after treatment, after rinsing with physiological saline", "description": "as §1\nThe rabbits were laparotomized by median section and the hepatic left lobes were exposed and sharply transected with a scalpel to about 1 cm to induce hemorrhage.\nAfter confirming exudative hemorrhage from the incision, the blood was removed as much as possible with gauze and the hepatic incision was treated with aqueous peptide solution.\nThe gelled aqueous peptide solution was removed 1 minute after treatment using physiological saline, and the presence of any hemorrhage from the hepatic incision was visually confirmed."}, "[2]": {"system": "rabbit gastric mucosa incision", "assay": "Rabbit gastric mucosa incision model (Example 8)", "format": "in vivo", "settings": "1 minute after treatment, after rinsing with physiological saline", "description": "as §1\nThe rabbits were laparotomized by median section and the stomachs were incised, after which the gastric mucosa was exposed and sharply incised with a scalpel to about 1 cm to induce hemorrhage.\nAfter confirming blood oozing from the incision, the blood was removed as much as possible with gauze and the gastric mucosa incision was treated with aqueous peptide solution.\nThe gelled aqueous peptide solution was removed 1 minute after treatment using physiological saline, and the presence of any hemorrhage from the gastric mucosa incision was visually confirmed."}, "rabbit portal vein stem [3]": {"system": "rabbit portal vein stem", "assay": "Rabbit portal vein stem injection needle perforation model, sugar-containing solutions (Example 4)", "format": "in vivo", "description": "as §1\n(§2) The rabbits were laparotomized by median section. Approximately 10 cm of the abdominal aorta and portal vein stem was exposed, each blood vessel was ablated from the surrounding tissue, and the abdominal aorta was punctured with a 26 G, 25 G or 23 G injection needle (Terumo Corp.) while the portal vein stem was punctured with a 26 G injection needle (Terumo Corp.).\n(§3) After 1-2 minutes of treatment, blood flow was released and the presence of hemorrhage was visually examined."}, "rabbit abdominal aorta [4]": {"system": "rabbit abdominal aorta", "assay": "Rabbit abdominal aorta injection needle perforation model (Example 1)", "format": "in vivo", "settings": "for hemostatic effect (hemorrhage visually examined): after release of clamp", "description": "as §1\nas §2, with “a” for “a 26 G, 25 G or”\n(§4) Upon confirming hemorrhage, blood flow at the peripheral end and central end was clamped with a hemostatic clamp, and after removing the hemorrhaged blood with physiological saline and gauze, it was immediately treated with the aqueous peptide solution.\n(§5) After 1-2 minutes of treatment, blood flow was released and the presence of hemorrhage from the puncture site was visually examined."}, "rabbit portal vein stem [5]": {"system": "rabbit portal vein stem", "assay": "Rabbit portal vein stem injection needle perforation model (Example 1)", "format": "in vivo", "description": "as §1\nas §2, with “a” for “a 26 G, 25 G or”\nas §4, §5"}, "resected liver surface": {"system": "resected liver surface", "assay": "Rabbit partial liver resection model (Example 2)", "format": "in vivo", "settings": "for hemorrhage from cut surface after rinsing with physiological saline: FIG. 2; for rabbits showing complete hemostasis: partial liver resection", "description": "as §1\nThe rabbits were laparotomized by median section, and the hepatic left or right lobe was sharply excised to a size of approximately 5 cm width×3 cm length from the edge using a scalpel, to prepare a liver section.\nBlood flow was released 1-2 minutes after treatment, the aqueous peptide solution that was gelled was removed by physiological saline, and the presence of any hemorrhage from the resected liver surface s was visually confirmed.\nThe resected liver surface in which a hemostatic effect was seen were fixed with 20% formalin and histopathologically evaluated by HE staining."}, "[6]": {"system": "abdominal aorta of rabbits with reduced blood clotting function", "assay": "Abdominal aorta injection needle perforation model of rabbits with suppressed blood clotting function (heparin) (Example 3)", "format": "in vivo, rabbit", "settings": "for Observations: heparin 1,000 units", "description": "as §1\nThe rabbits were laparotomized by median section. Approximately 10 cm of the abdominal aorta was exposed, the blood vessel was ablated from the surrounding tissue, and the vessel was punctured with a 26 G, 25 G or 23 G injection needle (Terumo Corp.).\nUpon confirming hemorrhage, blood flow at the peripheral end and center end was clamped with a hemostatic clamp, and after removing the hemorrhaged blood with physiological saline and gauze, it was immediately treated with the aqueous peptide solution.\nas §3"}, "rat portal vein": {"system": "rat portal vein", "assay": "Rat portal vein embolization (Example 11)", "format": "in vivo", "settings": "4 mL injected through portal vein stem, liver extracted after 5 minutes, HE staining", "description": "The rats were subjected to inhalation anesthesia with diethyl ether (Kishida Chemical Co., Ltd.).\nThe rats were laparotomized by median section and the portal veins were exposed.\nA 4 mL portion of aqueous peptide solution was injected through the portal vein stem with a 26 G injection needle (Terumo Corp.), and hemorrhage from the puncture site was immediately arrested with aqueous peptide solution.\nThe livers were extracted 5 minutes after injection and immediately fixed with 10% formalin (Wako Pure Chemical Industries, Ltd.).\nThe tissue was stained with haematoxylin eosin (HE) 1 week after fixing."}, "rabbit bile duct wall": {"system": "rabbit bile duct wall", "assay": "Rabbit bile duct injection needle perforation model (Example 6)", "format": "in vivo", "settings": "26 G needle", "description": "as §1\nThe rabbits were laparotomized by median section. Approximately 10 cm of the bile duct was exposed, and after ablation from the surrounding tissue, the bile duct was punctured with a 26 G injection needle.\nAfter confirming discharge of bile and continuous flow of bile, the bile flow was blocked with a hemostatic clamp.\nThe leaked bile was removed with physiological saline and gauze, and then treated with 3% aqueous peptide solution.\nAfter 2 minutes of treatment, bile flow blockage was released and the presence of bile flow from the puncture site was visually examined."}, "[7]": {"system": "canine intravesical tumor / vesical mucosa", "assay": "Canine intravesical tumorectomy, submucosal injection (Example 7)", "format": "in vivo, dog", "description": "Canine intravesical tumorectomy was carried out under general anesthesia management, by the following procedure.\nAfter hypogastric incision with an electrocautery scalpel (Erbe, Inc.), the electrocautery scalpel was used for incision of the bladder to expose the intravesical tumor (pedunculated tumor with a base site diameter of approximately 0.5 cm that is elevated from the vesical mucosa).\n3% Aqueous peptide solution was submucosally injected around the tumor base in 4 injections of 0.5 mL each, and elevation of the tumor on the mucosa was confirmed.\nAfter elevating the tumor, the tumor was excised with an electronic scalpel.\nThe time from aqueous peptide solution injection to complete tumor excision was approximately 2 minutes."}, "rabbit abdominal aorta [8]": {"system": "rabbit abdominal aorta", "assay": "Rabbit abdominal aorta injection needle perforation model, sugar-containing solutions (Example 4)", "format": "in vivo", "description": "as §1, §2, §3"}}, "note": "“Also recorded” adds a separate entry of the source. No end group written: not given here."}
{"substance": "1% IEIK9 aqueous peptide solution: 1% aqueous peptide solution, peptide sequence IEIK9 (SEQ ID NO: 4) (Ac-IEIKIEIKI)", "values": [{"measurement": "bile-induced self-assembly", "setting": "[1]", "result": "virtually no self-assembly seen"}, {"measurement": "hemostatic effect (hemorrhage from hepatic incision)", "setting": "rabbit hepatic incision", "result": "hemorrhage observed from incision site"}, {"measurement": "hemostatic effect (hemorrhage from hepatic incision)", "setting": "rabbit hepatic incision; listed as IEIK9 aqueous peptide solution", "result": "no hemostatic effect"}]}
{"substance": "Ac-(IEIK)3I-CONH2 [1% IEIK13 aqueous peptide solution]", "values": [{"measurement": "bile-induced self-assembly", "setting": "[1]", "result": "self-assembly confirmed"}, {"measurement": "hemostatic effect (hemorrhage from hepatic incision)", "setting": "rabbit hepatic incision", "result": "no hemorrhage observed from incision site"}, {"measurement": "hemostatic effect (hemorrhage from hepatic incision)", "setting": "rabbit hepatic incision; listed as IEIK13 aqueous peptide solution", "result": "no hemorrhage was observed"}]}
{"substance": "Ac-(KLDL)3-CONH2 (Ac-KLDLKLDLKLDL-NH2) [1% KLD aqueous peptide solution]", "values": [{"measurement": "bile-induced self-assembly", "setting": "[1]", "result": "self-assembly confirmed"}, {"measurement": "hemostatic effect (hemorrhage from hepatic incision)", "setting": "rabbit hepatic incision", "result": "no hemorrhage observed from incision site"}, {"measurement": "hemostatic effect (hemorrhage from hepatic incision)", "setting": "rabbit hepatic incision; listed as KLD aqueous peptide solution", "result": "no hemorrhage was observed"}]}
{"substance": "Ac-(RADA)4-NH2 (Ac-RADARADARADARADA-NH2) [2% aqueous peptide solution]", "values": [{"measurement": "hemorrhage from gastric mucosa incision", "setting": "[2]", "result": "no hemorrhage from incision site"}, {"measurement": "hemostatic effect (compared between the solutions)", "setting": "rabbit portal vein stem [3]; portal vein stem 26 G needle perforation", "result": "equivalent"}, {"measurement": "Observation", "setting": "rabbit portal vein stem [3]; portal vein stem, 26 G needle", "result": "Complete"}]}
{"substance": "Ac-(RADA)4-NH2 [1% aqueous peptide solution] (Ac-RADARADARADARADA-NH2)", "values": [{"measurement": "hemostatic effect (hemorrhage visually examined)", "setting": "rabbit abdominal aorta [4]", "result": "hemostasis was not complete; also recorded: resumed hemorrhage following declamp"}, {"measurement": "hemostatic effect (hemorrhage visually examined)", "setting": "rabbit portal vein stem [5]", "result": "persistent phleborrhagia"}, {"measurement": "hemorrhage from cut surface after rinsing with physiological saline", "setting": "resected liver surface", "result": "no hemorrhage observed from cut surface"}, {"measurement": "rabbits showing complete hemostasis", "setting": "resected liver surface", "result": "two of two"}]}
{"substance": "Ac-(RADA)4-NH2 [1.5% PuraMatrix aqueous peptide solution]", "values": [{"measurement": "bile-induced self-assembly", "setting": "[1]", "result": "self-assembly confirmed"}]}
{"substance": "Ac-(RADA)4-NH2 [3% aqueous peptide solution] (Ac-RADARADARADARADA-NH2)", "values": [{"measurement": "Observations", "setting": "[6]; 23 G needle", "result": "Complete hemostasis"}, {"measurement": "Observations", "setting": "[6]; 25 G needle", "result": "Complete hemostasis"}, {"measurement": "Observations", "setting": "[6]; 26 G needle", "result": "Complete hemostasis"}, {"measurement": "hemostatic effect (hemorrhage visually examined)", "setting": "[6]; heparin-treated rabbits, 26 G, 25 G and 23 G needle perforation", "result": "complete hemostasis; also recorded: perivascular hemorrhage of (b) not seen after declamp"}, {"measurement": "rabbits demonstrating complete hemostasis", "setting": "rabbit abdominal aorta [4]", "result": "two of two"}, {"measurement": "hemostatic effect (hemorrhage visually examined)", "setting": "rabbit abdominal aorta [4]", "result": "completely hemorrhage-arrested blood vessel"}, {"measurement": "portal vein embolization", "setting": "rat portal vein", "result": "Embolization of portal vein confirmed"}, {"measurement": "Observations", "setting": "rabbit bile duct wall", "result": "Aqueous peptide solution gelled"}, {"measurement": "bile duct wall occlusion effect (bile leakage)", "setting": "rabbit bile duct wall", "result": "complete bile duct wall occlusion effect; also recorded: bile leakage of (b) not observed around bile duct"}, {"measurement": "hemorrhage at excision site after tumor excision", "setting": "[7]; excision by electrocautery", "result": "no hemorrhage at excision site after tumor excision"}, {"measurement": "hemorrhage at excision site during tumor excision", "setting": "[7]; excision by electrocautery", "result": "no hemorrhage at excision site during tumor excision"}, {"measurement": "mucosal swelling (elevation) of excision site", "setting": "[7]; submucosal injection, 4 injections of 0.5 mL", "result": "swelling of affected area confirmed"}, {"measurement": "cases demonstrating complete hemostasis", "setting": "rabbit portal vein stem [5]", "result": "two of two"}, {"measurement": "Observation", "setting": "rabbit abdominal aorta [8]; 23 G needle", "result": "Complete"}, {"measurement": "Observation", "setting": "rabbit abdominal aorta [8]; 25 G needle", "result": "Complete"}, {"measurement": "Observation", "setting": "rabbit abdominal aorta [8]; 26 G needle", "result": "Complete"}, {"measurement": "hemorrhage from cut surface after rinsing with physiological saline", "setting": "resected liver surface", "result": "hemorrhage observed from cut surface"}, {"measurement": "rabbits showing complete hemostasis", "setting": "resected liver surface", "result": "1 of 4"}]}
